Values of other authors in US20190209538A1, “Precision Controlled Load and Release Particles for Post-Operative Pain” (LIQUIDIA TECHNOLOGIES, INC., priority 2016, published 2019).

What was measured:
[1] = room temperature, aqueous system between pH 7.0 and pH 9.0
[2] = in vivo

Structure (SMILES)	solubility relative to bupivacaine HCl [1]	clearance rate [2]
CCCCN1CCCCC1C(=O)Nc1c(C)cccc1C (stereo not shown) [bupivacaine free base, bupivacaine]	less soluble than bupivacaine HCl	
CCCCN1CCCCC1C(=O)Nc1c(C)cccc1C (stereo not shown) [bupivacaine]		0.58 L/min
CCCCN1CCCC[C@H]1C(=O)Nc1c(C)cccc1C [levobupivacaine]		0.32 L/min
CCCN1CCCC[C@H]1C(=O)Nc1c(C)cccc1C [ropivacaine]		~0.72 L/min
